# Values quoted from earlier work, collected in PMC9395488, “First-in-human study of IM156, a novel potent biguanide oxidative phosphorylation (OXPHOS) inhibitor, in patients with advanced solid tumors” (Investigational New Drugs, 2022).
# pIC50: −log10 of the molar value.
# How the values were obtained:
# [1] = test system: Glioblastoma cells; design: method as in ImmunoMet, 2018; settings: 15 µM IM156, 500 µM temozolomide, ref ImmunoMet, 2018; cited from earlier work
# [2] = test system: glioblastoma (GSC11); design: method as in ImmunoMet, 2018; settings: glioblastoma animal model, control group 47 days; ref ImmunoMet, 2018; cited from earlier work
# [3] = test system: OXPHOS; design: method as in ImmunoMet, 2018; settings: at the same concentration; ref ImmunoMet, 2018; cited from earlier work
# [4] = test system: patients (pts) with advanced solid tumors; settings: cited from earlier work
# [5] = test system: A549; design: method as in ImmunoMet, 2018; settings: in A549; ref ImmunoMet, 2018; read-out: OXPHOS inhibition IC50; cited from earlier work
structure (smiles),measurement,setting,value
"Cn1nnc2c(C(N)=O)ncn2c1=O [temozolomide, reference compound]",neurosphere size,[1],decreased
same,median survival time,[2],58 days
"[H]/N=C(/N)N/C(=N/[H])NCCc1ccccc1 [phenformin, reference compound]",time until OXPHOS inhibition starts to show,[3],≥ 6 h
Cc1nc(-c2nc(-c3ccc(OC(F)(F)F)cc3)no2)nn1Cc1cccc(N2CCC(S(C)(=O)=O)CC2)c1 [IACS-010759],"patients with PR, percent",[4],5%
same,patients with SD,[4],8 patients
same,"patients with SD, percent",[4],38%
same,"Grade ≥ 3 AEs, percent of patients","[4]; human, in vivo",43%
same,"diarrhea of any grade, percent of patients","[4]; human, in vivo",10%
same,"elevations of blood lactate, percent of patients","[4]; human, in vivo",71%
same,"nausea of any grade, percent of patients","[4]; human, in vivo",67%
same,"vomiting of any grade, percent of patients","[4]; human, in vivo",29%
same,patients with PR,[4]; patient with prostate cancer,one
"CN(C)C(=N)N=C(N)N [metformin, reference compound]",pIC50,[5],~3.30
